According to ChEMBL document CHEMBL4118091, “N-Acylbenzenesulfonamide Dihydro-1,3,4-oxadiazole Hybrids: Seeking Selectivity toward Carbonic Anhydrase Isoforms” (ACS Med Chem Lett, 2017):

Tests used:
Carbonic anhydrase 1 = Carbonic anhydrase 1 (Homo sapiens, UniProt P00915); test: Inhibition of recombinant human carbonic anhydrase 1 assessed as reduction in CO2 hydration pretreated for 15 mins followed by CO2 addition measured for 10 to 100 sec by Line-Weaver Burk plot analysis
Carbonic anhydrase 9 = Carbonic anhydrase 9 (Homo sapiens, UniProt Q16790); test: Inhibition of recombinant human carbonic anhydrase 9 assessed as reduction in CO2 hydration pretreated for 15 mins followed by CO2 addition measured for 10 to 100 sec by Line-Weaver Burk plot analysis

Sequence of Carbonic anhydrase 1 (P00915 whole entry): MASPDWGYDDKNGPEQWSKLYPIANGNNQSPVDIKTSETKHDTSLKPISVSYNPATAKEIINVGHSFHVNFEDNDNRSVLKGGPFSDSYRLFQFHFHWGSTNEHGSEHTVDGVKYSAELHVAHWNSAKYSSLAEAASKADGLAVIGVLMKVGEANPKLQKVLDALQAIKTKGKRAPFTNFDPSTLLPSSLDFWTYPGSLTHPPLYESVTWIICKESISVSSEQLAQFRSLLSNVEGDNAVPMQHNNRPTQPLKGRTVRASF

Compound | Ki (Carbonic anhydrase 1) [nM] | Ki (Carbonic anhydrase 9) [nM]
CC(=O)NS(=O)(=O)c1ccc(C2=NN(C(C)=O)C(c3ccccc3[N+](=O)[O-])O2)cc1 (centres undefined) | > 10000 | 159
COc1ccc(C2OC(c3ccc(S(=O)(=O)NC(C)=O)cc3)=NN2C(C)=O)cc1 (centres undefined) | > 10000 | 143
CC(=O)NS(=O)(=O)c1ccc(C2=NN(C(C)=O)C(c3ccc(Cl)cc3Cl)O2)cc1 (single isomer, unassigned; (+)) | – | 26.9
CC(=O)NS(=O)(=O)c1ccc(C2=NN(C(C)=O)C(c3ccc(C(F)(F)F)cc3)O2)cc1 (centres undefined) | > 10000 | 468
CC(=O)NS(=O)(=O)c1ccc(C2=NN(C(C)=O)C(c3ccc(F)cc3F)O2)cc1 (centres undefined) | – | 373
COc1cccc(C2OC(c3ccc(S(=O)(=O)NC(C)=O)cc3)=NN2C(C)=O)c1 (centres undefined) | – | 430
COc1ccccc1C1OC(c2ccc(S(=O)(=O)NC(C)=O)cc2)=NN1C(C)=O (centres undefined) | – | 378
CC(=O)NS(=O)(=O)c1ccc(C2=NN(C(C)=O)C(c3ccc(Cl)cc3Cl)O2)cc1 (racemic) | – | 25
CC(=O)NS(=O)(=O)c1ccc(C2=NN(C(C)=O)C(c3ccc(C)cc3)O2)cc1 (centres undefined) | – | 502
CC(=O)NS(=O)(=O)c1ccc(C2=NN(C(C)=O)C(c3ccc([N+](=O)[O-])cc3)O2)cc1 (centres undefined) | – | 33.1
CC(=O)NS(=O)(=O)c1ccc(C2=NN(C(C)=O)C(c3cccc([N+](=O)[O-])c3)O2)cc1 (centres undefined) | > 10000 | 44.3
CC(=O)NS(=O)(=O)c1ccc(C2=NN(C(C)=O)C(c3ccc(F)cc3)O2)cc1 (centres undefined) | – | 43.6
CC(=O)NS(=O)(=O)c1ccc(C2=NN(C(C)=O)C(c3ccc(Cl)cc3)O2)cc1 (centres undefined) | – | 502
CC(=O)NS(=O)(=O)c1ccc(C2=NN(C(C)=O)C(c3ccccc3C)O2)cc1 (centres undefined) | – | 489
CC(=O)NS(=O)(=O)c1ccc(C2=NN(C(C)=O)C(c3ccc(Cl)cc3Cl)O2)cc1 (single isomer, unassigned; (-)) | – | 24.2
